Target: T1, KRAS 4B G12C protein (Homo sapiens, UniProt P01116, G12C)
T1 construct: This protein contained 188 amino acids in total, including an N-terminal 6-Histidine tag; made in house; host or cells: E. coli BL21
Experiment: In vitro covalent adduct formation (CAF) assay by LC-MS
Format: binding
Conditions: compound 10 μM, protein 5 μM, 22° C., percentage of protein bound by the compound
Procedure, shortened: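 Percent of protein covalently modified was quantified from intact-mass LC-MS ratios of free versus adducted protein, adducts within 1 Da of expected mass. Reactions: 10 μM compound, 5 μM His-TEV-KRAS 4B G12C (1-169) in TBS pH 7.4, 4% DMSO, 22° C., one hour, run in duplicate.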

CAF (10 minutes/60 minutes) at 10 micromolar: 10 minutes | CAF (10 minutes/60 minutes) at 10 micromolar: 60 minutes | SMILES
76% | 91% | C=CC(=O)N1CCN(c2nc(OC[C@@H]3CCCN3C)nc3c2CN(C2CCCc4ccccc42)C3)C[C@@H]1CC#N (stereo partly drawn) [1-52 (2nd isomer)]
38% | 54% | C=C(F)C(=O)N1CCN(c2nc(OC[C@@H]3CCCN3C)nc3c2CN(C2CCc4ccccc42)C3)C[C@@H]1CC#N (stereo partly drawn) [1-138]
 | NA/ 0% | C=C(F)C(=O)N1CCN(c2nc(OCCC(F)F)nc3c2CN(C2CCc4ccccc42)C3)C[C@@H]1CC#N (stereo partly drawn) [1-167]
2% | 15% | C=CC(=O)N1CCN(c2nc(Oc3cccc4ccn(C)c34)nc3c2CN(C2CCc4ccccc42)C3)C[C@@H]1CC#N (stereo partly drawn) [1-166]
0% | 1% | C=CC(=O)N1CCN(c2nc(OC[C@@H]3CCCN3C)nc3c2CN(C2CCc4ccccc42)C3)C[C@@H]1Cn1ccnc1 (stereo partly drawn) [1-219]
88% | 94% | C=CC(=O)N1CCN(c2nc(OC[C@@H]3CCCN3C(C)C)nc3c2CN(C2CCc4ccccc42)C3)C[C@@H]1CC#N (stereo partly drawn) [1-176]
0%/ 0% | 0%/ 0% | C=CC(=O)N1CC2CC(=O)CC1CN2c1nc(OC)nc2c1CN(C1CCc3ccccc31)C2 (stereo not drawn) [1-250]
0%/ 0% | 0%/ 0% | CN1CCC[C@H]1COc1nc2c(c(N3CCN(C(=O)C45CC4C5)[C@@H](CC#N)C3)n1)CN(C1CCc3ccccc31)C2 (stereo partly drawn) [1-316]
26% | 64% | C=CC(=O)N1CCN(c2nc(OCCOC)nc3c2CN(C2CCc4ccccc42)C3)C[C@@H]1CC#N (stereo partly drawn) [1-129]
10% | 19% | C=CC(=O)N1CCN(c2nc(OC[C@@H]3CCCN3C)nc3c2CN(C2CCc4ccccc42)C3)C[C@@H]1C(N)=O (stereo partly drawn) [1-159, (2R)-1-acryloyl-4-(6-(2,3-dihydro-1H-inden-1-yl)-2-(((S)-1-methylpyrrolidin-2-yl)methoxy)-6,7-dihydro-5H-pyrrolo[3,4-d]pyrimidin-4-yl)piperazine-2-carboxamide]
64% | 95% | C=C(F)C(=O)N1CCN(c2nc(OC[C@@H]3CCCN3C)nc3c2CN(C2CCc4cccc(Cl)c42)C3)C[C@@H]1CC#N (stereo partly drawn) [1-127]
97%/ 97% | 97%/ 97% | C=CC(=O)N1CCN(c2nc(OC[C@@H]3CCCN3C)nc3c2CN(Cc2c(Cl)cccc2OC)C3)C[C@@H]1CC#N [1-38]
95% | 97% | C=CC(=O)N1CCN(c2nc(OC[C@@H]3CCCN3C)nc3c2CN(Cc2ccccc2C(C)C)C3)C[C@@H]1CC#N [1-168]
2% | 19% | C=CC(=O)N1CCN(c2nc(OC3CC3)nc3c2CN(C2CCc4ccccc42)C3)C[C@@H]1CC#N (stereo partly drawn) [1-152]
78% | 93% | C=CC(=O)N1CCN(c2nc(OC[C@@H]3CCCN3C)nc3c2CN(Cc2cc(F)ccc2Cl)C3)C[C@@H]1CC#N [1-25]
0%/ 0% | 0%/ 0% | C=CC(=O)N1CCN(c2nc(OC[C@@H]3CCCN3C)nc3c2CN(C2CCc4ccccc42)C3)C[C@@H]1CNC(C)=O (stereo partly drawn) [1-217]
6% | 26% | C=CC(=O)N1CCN(c2nc(OC[C@@H]3CCCN3C)nc3c2CN(C2CCc4ccccc42)C3)CC1 (stereo partly drawn) [1-190]
62% | 74% | C=CC(=O)N1CCN(c2nc(OC[C@@H]3CCCN3Cc3ccccc3)nc3c2CN(C2CCc4ccccc42)C3)C[C@@H]1CC#N (stereo partly drawn) [1-199]

The next lines start with the compound.

SMILES | CAF (10 minutes/60 minutes) at 10 micromolar: 10 minutes | CAF (10 minutes/60 minutes) at 10 micromolar: 60 minutes
C=CC(=O)N1CC2COCC(C1)N2c1nc(OC[C@@H]2CCCN2C)nc2c1CN(Cc1cc(OC)ccc1Cl)C2 [1-88] | 0%/ 0% | 0%/ 0%
C=CC(=O)N1CCN(c2nc(OC[C@@H]3CCCN3C)nc3c2CN(Cc2c(Cl)cccc2OC(F)F)C3)[C@@H](C)C1 [1-99] | 0% | 6%
C=C(F)C(=O)N1CCN(c2nc(OC[C@@H]3CCCN3C)nc3c2CN(Cc2cc(N)ncc2Cl)C3)C[C@@H]1CC#N [1-332] | 6% | 48%
C=C(F)C(=O)N1CCN(c2nc(OC[C@@H]3CCCN3C)nc3c2CN(Cc2cccc4ncccc24)C3)C[C@@H]1CC#N [1-319] | 0%/ 0% | 0%/ 0%
C=CC(=O)N1CCN(c2nc(OC[C@@H]3CCCN3C)nc3c2CN(Cc2cnccc2Cl)C3)C[C@@H]1CC#N [1-119] | 66% | 94%
C=CC(=O)N1CCN(c2nc(OC[C@@H]3CCCN3C)nc3c2CN(Cc2cc(O)ccc2Cl)C3)CC1 [1-165] | 88% | 96%
C=C(F)C(=O)N1CCN(c2nc(OC[C@@H]3CCCN3C)nc3c2CN(Cc2cc(O)c(C)cc2C)C3)C[C@@H]1CC#N [1-327] | 0% | 3%
C=CC(=O)N1C[C@H](C)N(c2nc(OC[C@@H]3CCCN3C)nc3c2CN(Cc2c(C)ccc4[nH]ncc24)C3)C[C@H]1C [1-22] | 1% | 15%
C=CC(=O)N1CCN(c2nc(OC[C@@H]3CCCN3C)nc3c2CN(Cc2c(Cl)cccc2OC)C3)C[C@@H]1C(O)C(F)(F)F (stereo partly drawn) [1-98] | 0% | 1%
C=CC(=O)N1CCN(c2nc(OC[C@@H]3CCCN3C)nc3c2C(C(F)(F)F)N(Cc2ccccc2)C3)C[C@@H]1CC#N (stereo partly drawn) [1-181, 2-((2S)-1-acryloyl-4-(6-benzyl-2-(((S)-1-methylpyrrolidin-2-yl)methoxy)-5-(trifluoromethyl)-6,7-dihydro-5H-pyrrolo[3,4-d]pyrimidin-4-yl)piperazin-2-yl)acetonitrile] | 0%/ 0% | 0%/ 0%
C=C(F)C(=O)N1CCN(c2nc(OC[C@@H]3CCCN3C)nc3c2CN(Cc2cc(Cl)ccc2C(F)(F)F)C3)C[C@@H]1CC#N [1-222] | 3% | 24%
C=C(F)C(=O)N1CCN(c2nc(OC[C@@H]3CCCN3C)nc3c2CN(Cc2c(Cl)cccc2OC(F)F)C3)C[C@@H]1CC#N [1-104] | 8% | 48%
C=CC(=O)N1CCN(c2nc(O[C@@H]3CN(C)C[C@H]3OC)nc3c2CN(Cc2cc(O)ccc2Cl)C3)C2COCC21 (stereo partly drawn) [1-336] | 0% | 9%
C=CC(=O)N1CCN(c2nc(OC[C@@H]3CCCN3C)nc3c2CN(Cc2cc(O)ccc2C)C3)C[C@@H]1CC#N [1-40] | 98%/ 98% | 98%/ 98%
C=CC(=O)N1CCN(c2nc(OC[C@@H]3CCCN3C)nc3c2CN(Cc2cc(O)ccc2C)C3)[C@@H](C)C1 [1-1, 1-[(3S)-4-{6-[(5-hydroxy-2-methylphenyl)methyl]-2-{[(2S)-1-methylpyrrolidin-2-yl]methoxy}-5H,7H-pyrrolo[3,4-d]pyrimidin-4-yl}-3-methylpiperazin-1-yl]prop-2-en-1-one] | 69% | 93%
C=CC(=O)N1CCN(c2nc(OC[C@@H]3CCCN3C)nc3c2CN(Cc2cc(Cl)ccc2F)C3)C[C@@H]1CC#N [1-49] | 81% | 97%
C=CC(=O)N1CC2CCC1CN2c1nc(OC[C@@H]2CCCN2C)nc2c1CN(Cc1cc(OC)ccc1Cl)C2 (stereo partly drawn) [1-161] | 0%/ 0% | 0%/ 0%

Source: US20210292330A1, “PYRROLIDINE-FUSED HETEROCYCLES” (Erasca, Inc., priority 2020, published 2021)
